Reference: US20260374766A1, “METHODS FOR TREATING CANCER” (Antares Therapeutics, Inc., priority 2022, published 2026)
Where two headings read alike, the source gives them in different places.

Experiments:
NUGC3 p53 Y220C = assay: Cell Proliferation Assay (CellTiter-Glo, CTG), NUGC3 p53 Y220C; assay type: cell-based; conditions: Homo sapiens, NUGC-3, 120 h, NUGC3 cells, 5 days, CellTiter-Glo
In short: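 Tet-One inducible p53 Y220C or R273H constructs were stably introduced into NCI-H1299 by lentiviral transduction; NUGC3 was used as is. Cells (250-500 per well) were exposed to compound for 5 days, then CellTiter-Glo was added for 10 min at room temperature and IC50 was calculated from luminescence.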

H1299 p53 Y220C = assay: Cell Proliferation Assay (CellTiter-Glo, CTG), H1299 p53 Y220C (NClH1299-inducible p53 Y220C); assay type: cell-based; conditions: Homo sapiens, NCI-H1299, 120 h, NClH1299-inducible p53 Y220C cells, 5 days, CellTiter-Glo
In short: (§1)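 NClH1299 lines stably transduced with Tet-inducible p53 Y220C or R273H, plus NUGC3, were treated with compound for 5 days at 250-500 cells/well. IC50 derived from CellTiter-Glo luminescent signal after 10 min room-temperature incubation.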

[1] = biological target: T1, p53 Y220C mutant protein (amino acid residues 94-293) (Homo sapiens, UniProt P04637, Y220C); assay: Surface Plasmon Resonance (SPR) assay, Kd_kinetic; assay type: binding; conditions: read-out: SPR P53 Y220C KD kinetic
T1 construct: p53 Y220C mutant protein (amino acid residues 94-293)
In short: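 Biacore 8K SPR; 16 or 20 °C; Tris 50 mM pH 7.5, NaCl 100 mM, DTT 1 mM, Brij35 0.01%, Tween-20 0.05%, DMSO 1%. Kd_kinetic by 1:1 fit.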

p53 Y220C = p53 Y220C (Homo sapiens, UniProt P04637, Y220C); assay: Luciferase Reporter Assay (Luc), p53 response element, NClH1299 cells with inducible p53 Y220C; assay type: cell-based; conditions: luciferase reporter, NClH1299 inducible p53 Y220C, 6 hour; for AC50: read-out: Luc P53 Y220C AC50
In short: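 Doxycycline (0.5 ug/mL, 24 h) induces the mutant before a 6-hour compound treatment. Reporter activity is then quantified by One-Glo luminescence.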

H1299 p53 R273H = assay: Cell Proliferation Assay (CellTiter-Glo, CTG), H1299 p53 R273H (NClH1299-inducible p53 R273H); assay type: cell-based; conditions: Homo sapiens, NCI-H1299, 120 h, NClH1299-inducible p53 R273H cells, 5 days, CellTiter-Glo
In short: as §1

T1 sequence (P04637 94-293, stated change not applied): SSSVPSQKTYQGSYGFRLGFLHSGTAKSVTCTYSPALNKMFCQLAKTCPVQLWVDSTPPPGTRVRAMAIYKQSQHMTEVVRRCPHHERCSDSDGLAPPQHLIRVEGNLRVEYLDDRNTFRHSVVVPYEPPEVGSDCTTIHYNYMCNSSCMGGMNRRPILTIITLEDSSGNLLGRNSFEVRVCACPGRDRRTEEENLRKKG

Row | IC50 (H1299 p53 Y220C) [nM] | Kd ([1]; SPR, p53 Y220C) [nM] | AC50 (p53 Y220C) [nM] | Emax (p53 Y220C) [%] | IC50 (H1299 p53 R273H) [nM] | Kd [1] [nM] | Structure (SMILES) | IC50 (NUGC3 p53 Y220C) [nM]
1 | < 750 | < 10 | < 750 | 70 to 80 | ≥ 10000 |  | CNC(=O)c1cnc(OC)c(NCC#Cc2nc3c(N[C@H]4C[C@@H]5CC[C@@H](N5)[C@H]4F)cccn3c2SC(F)(F)F)c1 [Example 267] | < 750
2 | < 750 | < 10 | < 750 | 80 to 90 | 5000 to 8000 |  | CNC(=O)c1ccc(NCC#Cc2nn3c(N[C@@H]4CCNC[C@@H]4F)cccc3c2SC(F)(F)F)c(OC)c1 [Example 272] | 750 to 1500
3 | < 750 | < 10 | < 750 | > 90 | ≥ 10000 |  | CCc1ncc(C(=O)NC)cc1NCC#Cc1nc2c(N[C@@H]3CCN(C)C[C@@H]3F)cccn2c1SC(F)(F)F [Example 273] | < 750
4 | < 750 | < 10 | < 750 | > 90 | ≥ 10000 |  | CNC(=O)c1cnc(C)c(NCC#Cc2nc3c(N[C@@H]4CCN(C)C[C@@H]4F)cccn3c2SC(F)(F)F)c1 [Example 274] | < 750
5 | < 750 | < 10 | < 750 | 80 to 90 | 5000 to 8000 |  | CNC(=O)c1ccc(NCC#Cc2nc3c(N[C@@H]4CCOC[C@@H]4F)cccn3c2SC(F)(F)F)c(OC2CN(C)C2)c1 [Example 275, 4-{[3-(8-{[(3R,4R)-3-fluorooxan-4-yl]amino}-3-[(trifluoromethyl)sulfanyl]imidazo[1,2-a]pyridin-2-yl)prop-2-yn-1-yl]amino}-N-methyl-3-[(1-methylazetidin-3-yl)oxy]benzamide] | < 750
6 | < 750 | < 10 | < 750 | 80 to 90 | < 5000 |  | COc1ncc(C(N)=O)cc1NCC#Cc1nn2c(N[C@@H]3CCN(C)C[C@@H]3F)cccc2c1SC(F)(F)F [Example 276] | < 750
7 | < 750 | < 10 | < 750 | 70 to 80 | < 5000 |  | CNC(=O)c1cnc(OC)c(NCC#Cc2nc3c(N[C@@H]4CCN(C)C[C@@H]4F)cccn3c2SC(F)F)c1 [Example 278] | < 750
8 | < 750 | < 10 | < 750 | > 90 | ≥ 10000 |  | COc1cc(C(N)=O)ccc1NCC#Cc1nn2c(N[C@@H]3CCN(C)C[C@@H]3F)cccc2c1SC(F)F [Example 286] | < 750
9 | < 750 |  | < 750 | > 90 | ≥ 10000 | < 10 | CNC(=O)c1ccc(NCC#Cc2cc3c(N[C@@H]4CCNC[C@@H]4F)nccn3c2SC(F)(F)F)cc1 [Example 298] | < 750
10 | < 750 | < 10 | < 750 | > 90 | ≥ 10000 |  | COc1cc(C(N)=O)ccc1NCC#Cc1cc2c(N[C@@H]3CCN(C)C[C@@H]3F)nccn2c1SC(F)(F)F [Example 299] | < 750
11 | 750 to 1500 | < 10 | 750 to 1500 | > 90 | ≥ 10000 |  | CNC(=O)c1ccc(NCC#Cc2cc3c(N[C@@H]4CCN(C)C[C@@H]4F)nccn3c2SC(F)(F)F)c(C#N)c1 [Example 301] | 750 to 1500
12 | < 750 | < 10 | < 750 | > 90 | ≥ 10000 |  | CNC(=O)c1ccc(NCC#Cc2cc3c(N[C@@H]4CCN(C)C[C@@H]4F)nccn3c2SC(F)(F)F)c(F)c1 [Example 302] | < 750
13 | < 750 | < 10 | < 750 | 80 to 90 | ≥ 10000 |  | CNC(=O)c1cnc(OC)c(NCC#Cc2nc3c(N[C@@H]4CNC[C@@H]4F)cccn3c2SC(F)(F)F)c1 [Example 305] | < 750
14 | < 750 | < 10 | < 750 | > 90 | ≥ 10000 |  | CNC(=O)c1ccc(NCC#Cc2nc3c(N[C@@H]4CCN(C)C[C@@H]4F)cccn3c2SC(F)(F)F)c(Cl)c1 [Example 310] | < 750
15 | < 750 | < 10 | < 750 | > 90 | 5000 to 8000 |  | CNC(=O)c1ccc(NCC#Cc2nc3c(N[C@@H]4CCN(C)C[C@@H]4F)cccn3c2SC(F)(F)F)c(F)c1 [Example 311] | < 750
16 | 750 to 1500 | < 10 | 750 to 1500 | 80 to 90 | ≥ 10000 |  | CNC(=O)c1cnc(OC)c(NCC#Cc2cc3c(N[C@@H]4CNC[C@@H]4F)nccn3c2SC(F)(F)F)c1 [Example 313] | 750 to 1500
17 | < 750 | < 10 | < 750 | > 90 | ≥ 10000 |  | CN1CC[C@@H](Nc2cccn3c(SC(F)(F)F)c(C#CCNc4ccc(C(N)=O)cc4)nc23)[C@@H](F)C1 [Example 314] | < 750
18 | < 750 | < 10 | 750 to 1500 | 80 to 90 | ≥ 10000 |  | CN1CC[C@@H](Nc2cccn3c(SC(F)(F)F)c(C#CCNc4ccc(P(C)(C)=O)cc4)nc23)[C@@H](F)C1 [Example 315] | < 750
19 | < 750 | < 10 | < 750 | > 90 | ≥ 10000 |  | CCNC(=O)c1ccc(NCC#Cc2nn3c(N[C@@H]4CCN(C)C[C@@H]4F)cccc3c2SC(F)(F)F)c(OC)c1 [Example 316] | < 750
20 | > 3000 | 10 to 100 | > 3000 | 70 to 80 | ≥ 10000 |  | CNC(=O)c1ccc(OC)c(NCC#Cc2nc3c(N[C@@H]4CCN(C)C[C@@H]4F)cccn3c2SC(F)(F)F)c1F [Example 320] | > 3000
21 | 750 to 1500 | < 10 | 750 to 1500 | > 90 | ≥ 10000 |  | CNC(=O)c1ccc(NCC#Cc2nc3c(N[C@@H]4CN(C)C[C@@H]4F)nccn3c2SC(F)(F)F)c(OC)c1 [Example 323] | 750 to 1500
22 | < 750 | < 10 | < 750 | > 90 | ≥ 10000 |  | CNC(=O)c1ccc(NCC#Cc2cc3c(N[C@@H]4CN(C)C[C@@H]4F)nccn3c2SC(F)(F)F)c(OC)c1 [Example 325] | < 750
23 | < 750 | < 10 | < 750 | > 90 | ≥ 10000 |  | CNC(=O)c1ccc(OC)c(NCC#Cc2cc3c(N[C@@H]4CCNC[C@@H]4F)nccn3c2SC(F)F)c1 [Example 326] | < 750
24 | < 750 | < 10 | < 750 | > 90 | ≥ 10000 |  | CNC(=O)c1cnc(OC)c(NCC#Cc2cc3c(N[C@@H]4CN(C)C[C@@H]4F)nccn3c2SC(F)F)c1 [Example 328] | < 750
25 | < 750 | < 10 | < 750 | > 90 | ≥ 10000 |  | CNC(=O)c1cnc(OC)c(NCC#Cc2cc3c(N[C@@H]4CN(C)C[C@@H]4F)nccn3c2SC(F)(F)F)c1 [Example 330] | < 750
26 | < 750 | < 10 | < 750 | > 90 | ≥ 10000 |  | CNC(=O)c1ccc(OC)c(NCC#Cc2cc3c(N[C@@H]4CN(C)C[C@@H]4F)nccn3c2SC(F)F)c1 [Example 331] | < 750
27 | 1500 to 3000 | < 10 | 1500 to 3000 | 80 to 90 | ≥ 10000 |  | CNC(=O)c1ccc(OC)c(NCC#Cc2cc3c(N[C@@H]4CN(C)C[C@@H]4F)nccn3c2SC(F)F)n1 [Example 332] | > 3000
28 | < 750 | < 10 | < 750 | > 90 | ≥ 10000 |  | CNC(=O)c1ccc(OC)c(NCC#Cc2cc3c(N[C@@H]4CCN(C)C[C@@H]4F)nccn3c2SC(F)F)n1 [Example 333] | < 750
29 | 1500 to 3000 | 10 to 100 | > 3000 | 80 to 90 | ≥ 10000 |  | CNS(=O)(=O)c1ccc(OC)c(NCC#Cc2cc3c(N[C@@H]4CCN(C)C[C@@H]4F)nccn3c2SC(F)F)c1 [Example 334] | > 3000
30 | 1500 to 3000 | < 10 | 1500 to 3000 | 80 to 90 | ≥ 10000 |  | CNS(=O)(=O)c1ccc(OC)c(NCC#Cc2cc3c(N[C@@H]4CCN(C)C[C@@H]4F)nccn3c2SC(F)(F)F)c1 [Example 335] | 1500 to 3000
